Reference: US20120046276A1, “Tuberculosis treatment using pleuromutilin derivatives” (priority 2002, published 2012)
Values after ≈ are worked out from the molar mass of the structure shown. Values joined by “and” are separate entries in the source; they are usually repeats but may differ in a detail not shown here. Equal values may be shown once. Read-outs that look alike come from different tables or passages of the source.

Assays:
Assay type in all cases: cell-based
[1] = system: Mycobacterium tuberculosis strain 1; test: Agar Dilution Test (MIC), strain 1 (Isoniacid S, Rifampicin S, Streptomycin S); settings: read-out: MIC against Mycobacterium tuberculosis of strain number 1
[2] = system: Mycobacterium tuberculosis strain 3; test: Agar Dilution Test (MIC), strain 3 (Isoniacid R, Rifampicin R, Streptomycin S)
[3] = system: Mycobacterium tuberculosis strain 6; test: Agar Dilution Test (MIC), strain 6 (Isoniacid S, Rifampicin S, Streptomycin S)
[4] = system: Mycobacterium tuberculosis strain 7; test: Agar Dilution Test (MIC), strain 7 (Isoniacid R, Rifampicin S, Streptomycin R)
[5] = system: Mycobacterium tuberculosis strain 4; test: Agar Dilution Test (MIC), strain 4 (Isoniacid R, Rifampicin R, Streptomycin R)
[6] = system: Mycobacterium tuberculosis strain 2; test: Agar Dilution Test (MIC), strain 2 (Isoniacid S, Rifampicin S, Streptomycin S)
[7] = system: Mycobacterium tuberculosis strain 15 (labor strain 137 kV); test: Agar Dilution Test (MIC), strain 15 = labor strain 137 kV (Isoniacid S, Rifampicin S, Streptomycin S)
[8] = system: Mycobacterium tuberculosis strain 11; test: Agar Dilution Test (MIC), strain 11 (Isoniacid S, Rifampicin S, Streptomycin S)
[9] = system: Mycobacterium tuberculosis strain 12; test: Agar Dilution Test (MIC), strain 12 (Isoniacid S, Rifampicin S, Streptomycin S)
[10] = system: Mycobacterium tuberculosis strain 8; test: Agar Dilution Test (MIC), strain 8 (Isoniacid S, Rifampicin R, Streptomycin S)
[11] = system: Mycobacterium tuberculosis strain 10; test: Agar Dilution Test (MIC), strain 10 (Isoniacid S, Rifampicin S, Streptomycin S)
[12] = system: Mycobacterium tuberculosis strain 13; test: Agar Dilution Test (MIC), strain 13 (Isoniacid S, Rifampicin S, Streptomycin S)
[13] = system: Mycobacterium tuberculosis strain 5; test: Agar Dilution Test (MIC), strain 5 (Isoniacid R, Rifampicin R, Streptomycin S)
[14] = system: Mycobacterium tuberculosis strain 14; test: Agar Dilution Test (MIC), strain 14 (Isoniacid S, Rifampicin S, Streptomycin S)
[15] = Mycobacterium tuberculosis, 1, 504 h
[16] = Mycobacterium tuberculosis, 1, 672 h
[17] = Mycobacterium tuberculosis, 1, 840 h
[18] = TABLE D; week 4*) tested after 31 days
[19] = TABLE C; week 4*) tested after 31 days
[20] = Mycobacterium tuberculosis, 1, 336 h
[21] = Mycobacterium tuberculosis, 1, 168 h

Q: For C=C[C@]1(C)C[C@@H](OC(=O)CSCCN(CC)CC)[C@]2(C)C(C)CC[C@]3(CCC(=O)C32)[C@@H](C)[C@@H]1O (stereo partly drawn) [TC-1, 14-Desoxy-14[(2-diethylaminoethyl)mercaptoacetoxy]mutilin], which MIC [1, 15] is on record?
A: 5 µg/mL (≈ 10.1 µM)

Q: And the MIC [1, 16]?
A: 5 µg/mL (≈ 10.1 µM)

Q: And the MIC [1, 17]?
A: 5 µg/mL (≈ 10.1 µM)

Q: What about the “MIC against Mycobacterium tuberculosis of strain number 3” value (from here on “MIC … of strain number 3”) [2] of the same compound?
A: 5 µg/mL

Q: What about the “MIC against Mycobacterium tuberculosis of strain number 6” value (“MIC … of strain number 6” for short) [3] of the same compound?
A: 10 µg/mL

Q: What about the “MIC against Mycobacterium tuberculosis of strain number 7” value (“MIC … of strain number 7” for short) [4] of the same compound?
A: 10 µg/mL and 20 µg/mL

Q: What about the “MIC against Mycobacterium tuberculosis of strain number 4” value (“MIC … of strain number 4” for short) [5] of the same compound?
A: 5 µg/mL and 10 µg/mL

Q: What about the “MIC against Mycobacterium tuberculosis of strain number 2” value (“MIC … of strain number 2” for short) [6] of the same compound?
A: 5 µg/mL

Q: How did the “MIC against Mycobacterium tuberculosis of strain number 15” value (shortened to “MIC … of strain number 15”) [7] turn out when C=C[C@]1(C)C[C@@H](OC(=O)CSC(C)(C)CNC(=O)[C@H](N)C(C)C)[C@]2(C)[C@H](C)CC[C@]3(CCC(=O)[C@H]32)[C@@H](C)[C@@H]1O [TC-2, Valnemulin] was run?
A: 2 µg/mL

Q: And the “MIC … of strain number 15” value [7, 18]?
A: 4 µg/mL

Q: And the “MIC against Mycobacterium tuberculosis of strain number 11” value (shortened to “MIC … of strain number 11”) [8]?
A: 2 µg/mL

Q: What about the “MIC … of strain number 11” value [8, 18] of the same compound?
A: 4 µg/mL

Q: What about the “MIC against Mycobacterium tuberculosis of strain number 12” value (“MIC … of strain number 12” for short) [9] of the same compound?
A: 4 µg/mL

Q: And the “MIC … of strain number 12” value [9, 18]?
A: 4 µg/mL

Q: What about the MIC [1, 15] of the same compound?
A: 0.5 µg/mL (≈ 0.885 µM)

Q: And the MIC [1, 16]?
A: 0.5 µg/mL (≈ 0.885 µM)

Q: What about the MIC ([1]; Mycobacterium tuberculosis, 1, 744 h, TABLE C; week 4*) tested after 31 days) of the same compound?
A: 0.5 µg/mL (≈ 0.885 µM)

Q: And the MIC [1, 17]?
A: 0.5 µg/mL (≈ 0.885 µM)

Q: And the “MIC against Mycobacterium tuberculosis of strain number 8” value (from here on “MIC … of strain number 8”) [10]?
A: 4 µg/mL

Q: And the “MIC … of strain number 8” value [10, 19]?
A: 8 µg/mL

Q: What about the “MIC … of strain number 3” value [2, 19] of the same compound?
A: 2 µg/mL

Q: And the “MIC … of strain number 6” value [3]?
A: 5 µg/mL and 4 µg/mL

Q: What about the “MIC … of strain number 6” value [3, 19] of the same compound?
A: 4 µg/mL

Q: And the “MIC … of strain number 7” value [4, 19]?
A: 8 µg/mL

Q: And the “MIC against Mycobacterium tuberculosis of strain number 10” value (shortened to “MIC … of strain number 10”) [11]?
A: 4 µg/mL

Q: What about the “MIC … of strain number 10” value [11, 18] of the same compound?
A: 4 µg/mL

Q: And the “MIC against Mycobacterium tuberculosis of strain number 13” value (“MIC … of strain number 13” for short) [12]?
A: 4 µg/mL

Q: What about the “MIC … of strain number 13” value [12, 18] of the same compound?
A: 8 µg/mL

Q: What about the “MIC … of strain number 4” value [5] of the same compound?
A: 5 µg/mL and 8 µg/mL

Q: And the “MIC … of strain number 4” value [5, 19]?
A: 8 µg/mL

Q: And the “MIC against Mycobacterium tuberculosis of strain number 5” value (“MIC … of strain number 5” below) [13]?
A: 2 µg/mL

Q: What about the “MIC … of strain number 5” value [13, 19] of the same compound?
A: 4 µg/mL

Q: What about the “MIC against Mycobacterium tuberculosis of strain number 14” value (from here on “MIC … of strain number 14”) [14] of the same compound?
A: 4 µg/mL

Q: What about the “MIC … of strain number 14” value [14, 18] of the same compound?
A: 4 µg/mL

Q: What about the “MIC … of strain number 2” value [6, 19] of the same compound?
A: 4 µg/mL

Q: Which MIC [1, 15] does the source give for C=C[C@]1(C)C[C@@H](OC(=O)CSc2cccc(NC(=O)C3CCCCN3)c2)[C@]2(C)C(C)CCC3(CCC(=O)C32)[C@@H](C)C1O (stereo partly drawn) [TC-3] here?
A: 1 µg/mL (≈ 1.68 µM)

Q: What about the MIC [1, 16] of the same compound?
A: 1 µg/mL (≈ 1.68 µM)

Q: And the MIC [1, 17]?
A: 1 µg/mL (≈ 1.68 µM)

Q: What about the “MIC … of strain number 3” value [2] of the same compound?
A: 5 µg/mL

Q: And the “MIC … of strain number 6” value [3]?
A: 5 µg/mL and 10 µg/mL

Q: What about the “MIC … of strain number 7” value [4] of the same compound?
A: 20 µg/mL

Q: And the “MIC … of strain number 2” value [6]?
A: 5 µg/mL

Q: With C=C[C@]1(C)C[C@@H](OC(=O)CSC2CCCN(C(=O)C(N)C(C)C)C2)[C@]2(C)C(C)CCC3(CCC(=O)C32)[C@@H](C)C1O (stereo partly drawn) [TC-4] as the compound, how does the “MIC … of strain number 15” value [7] read?
A: 4 µg/mL and 2 µg/mL

Q: What about the “MIC … of strain number 11” value [8] of the same compound?
A: 2 µg/mL

Q: And the “MIC … of strain number 12” value [9]?
A: 4 µg/mL and 2 µg/mL

Q: What about the MIC [1, 15] of the same compound?
A: 0.5 µg/mL (≈ 0.867 µM)

Q: And the MIC [1, 16]?
A: 1 µg/mL (≈ 1.73 µM)

Q: What about the MIC [1, 17] of the same compound?
A: 1 µg/mL (≈ 1.73 µM)

Q: What about the “MIC … of strain number 8” value [10] of the same compound?
A: 4 µg/mL and 2 µg/mL

Q: And the “MIC … of strain number 6” value [3]?
A: 5 µg/mL and 4 µg/mL

Q: What about the “MIC … of strain number 10” value [11] of the same compound?
A: 4 µg/mL and 2 µg/mL

Q: And the “MIC … of strain number 13” value [12]?
A: 4 µg/mL and 2 µg/mL

Q: And the “MIC … of strain number 5” value [13]?
A: 2 µg/mL

Q: And the “MIC … of strain number 14” value [14]?
A: 4 µg/mL

Q: And the “MIC … of strain number 2” value [6]?
A: 5 µg/mL and 4 µg/mL

Q: With C=C[C@]1(C)C[C@@H](OC(=O)CSc2cccc(NC(=O)C(N)CCCNC(=N)N)c2)[C@]2(C)C(C)CCC3(CCC(=O)C32)[C@@H](C)C1O (stereo partly drawn) [TC-5] as the compound, how does the MIC [1, 15] read?
A: 1 µg/mL (≈ 1.56 µM)

Q: And the MIC [1, 16]?
A: 5 µg/mL (≈ 7.79 µM)

Q: What about the MIC [1, 17] of the same compound?
A: 5 µg/mL (≈ 7.79 µM)

Q: And the “MIC … of strain number 3” value [2]?
A: 5 µg/mL

Q: What about the “MIC … of strain number 6” value [3] of the same compound?
A: 5 µg/mL and 10 µg/mL

Q: And the “MIC … of strain number 7” value [4]?
A: 5 µg/mL and 10 µg/mL

Q: What about the “MIC … of strain number 4” value [5] of the same compound?
A: 5 µg/mL and 10 µg/mL

Q: And the “MIC … of strain number 2” value [6]?
A: 5 µg/mL

Q: Which “MIC … of strain number 15” value [7] does the source give for C=C[C@]1(C)C[C@@H](OC(=O)CSc2cccc(NC(=N)N)c2)[C@]2(C)C(C)CCC3(CCC(=O)C32)[C@@H](C)C1O (stereo partly drawn) [TC-6] here?
A: 0.5 µg/mL

Q: And the “MIC … of strain number 12” value [9]?
A: 1 µg/mL

Q: What about the MIC [1, 20] of the same compound?
A: 1 µg/mL (≈ 1.89 µM)

Q: How did the “MIC … of strain number 15” value [7] turn out when C=C[C@]1(C)C[C@@H](OC(=O)CSC(C)(C)C(N)C(=O)NC)[C@]2(C)C(C)CCC3(CCC(=O)C32)[C@@H](C)C1O (stereo partly drawn) [TC-7] was run?
A: 32 µg/mL

Q: What about the “MIC … of strain number 12” value [9] of the same compound?
A: 32 µg/mL

Q: What about the MIC [1, 21] of the same compound?
A: 2 µg/mL (≈ 3.83 µM)

Q: How did the “MIC … of strain number 15” value [7] turn out when C=C[C@]1(C)C[C@@H](OC(=O)CSC(C)(C)C(N)C(=O)N2CCN(C)CC2)[C@]2(C)C(C)CCC3(CCC(=O)C32)[C@@H](C)C1O (stereo partly drawn) [TC-8] was run?
A: 32 µg/mL

Q: What about the “MIC … of strain number 12” value [9] of the same compound?
A: 32 µg/mL

Q: What about the MIC [1, 21] of the same compound?
A: 2 µg/mL (≈ 3.38 µM)

Q: C=C[C@]1(C)C[C@@H](OC(=O)CSC2CCCC(=NO)C2)[C@]2(C)C(C)CCC3(CCC(=O)C32)[C@@H](C)C1O (stereo partly drawn) [TC-9] was tested. Which “MIC … of strain number 15” value [7] did it give?
A: 32 µg/mL

Q: And the “MIC … of strain number 12” value [9]?
A: 32 µg/mL

Q: What about the MIC [1, 21] of the same compound?
A: 8 µg/mL (≈ 15.8 µM)

Q: With C=C[C@]1(C)C[C@@H](OC(=O)CSC2CCNCC2O)[C@]2(C)C(C)CCC3(CCC(=O)C32)[C@@H](C)C1O (stereo partly drawn) [TC-10] as the compound, how does the “MIC … of strain number 15” value [7] read?
A: 4 µg/mL

Q: And the “MIC … of strain number 12” value [9]?
A: 16 µg/mL

Q: What about the MIC [1, 20] of the same compound?
A: 2 µg/mL (≈ 4.05 µM)
